Laboratory results from patent US6737383B1, “Herbicidal oxadiazolidines” (priority 1999, dated 2004).

Tests used:
wheat = test: Test B pre/postemergence wheat; type: in vivo, Triticum aestivum
How it was run: (§1)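 Herbicidal effect was estimated by eye on a ten-point control scale after plants spent twelve to sixteen days in a greenhouse following soil or foliar treatment. Foliar sprays targeted plants at one to four leaves; all doses were formulated in a non-phytotoxic solvent with surfactant.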

smallflower flatsedge = test: Test B flood test smallflower flatsedge; type: in vivo, Cyperus difformis; details: for Plant response rating, S. Flatsedge (0 to 10 scale, 0 is no effect, 10 is complete control) / S. Flatsedge plant response rating (0 to 10 scale, 0 is no effect, 10 is complete control): flood test species, visual evaluation after twelve to sixteen days; for Plant response rating, S. Flatsedge (0 to 10 scale, 0 is no effect, 10 is complete control): Pre-emergence; for S. Flatsedge plant response rating (0 to 10 scale, 0 is no effect, 10 is complete control): under heading Pre-emergence
How it was run: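 Each value is a visual injury score relative to controls, with 10 meaning complete control and 0 no effect. Evaluation took place twelve to sixteen days after the 2-leaf-stage plants were treated and kept in the greenhouse.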

soybean = test: Test B pre/postemergence soybean; type: in vivo, Glycine max
How it was run: as §1

wild oat = test: Test B pre/postemergence wild oat; type: in vivo, Avena fatua
How it was run: as §1

crabgrass = test: Test B pre/postemergence crabgrass; type: in vivo, Digitaria sanguinalis
How it was run: as §1

[1] = Postemergence, Rate 62 g/ha, scale 0 to 10, 0 is no effect, 10 is complete control
[2] = Postemergence, Rate 125 g/ha, scale of 0 to 10 where 0 is no effect and 10 is complete control
[3] = Postemergence, Rate 250 g/ha, scale of 0 to 10, 0 is no effect, 10 is complete control
[4] = Postemergence, Rate 500 g/ha, scale of 0 to 10 where 0 is no effect and 10 is complete control
[5] = Preemergence, Rate 62 g/ha, scale 0 to 10 (0 no effect, 10 complete control)
[6] = Preemergence, Rate 125 g/ha, scale of 0 to 10 where 0 is no effect and 10 is complete control
[7] = Preemergence, Rate 500 g/ha, scale of 0 to 10 where 0 is no effect and 10 is complete control
[8] = Rate 250 g/ha, Pre-emergence (flood test species), scale 0 to 10, 0 is no effect, 10 is complete control
[9] = Rate 500 g/ha, Pre-emergence section of Table B, 0 to 10 scale (0 no effect, 10 complete control)
[10] = Postemergence, Rate 250 g/ha, scale 0 to 10, 0 no effect, 10 complete control
[11] = Preemergence, Rate 31 g/ha, visual rating, scale 0 to 10 (0 no effect, 10 complete control)
[12] = Preemergence, Rate 62 g/ha, scale 0 to 10, 0 is no effect, 10 is complete control
[13] = Preemergence, Rate 125 g/ha, scale 0 to 10 (0 no effect, 10 complete control)
[14] = Preemergence, Rate 250 g/ha, scale of 0 to 10 where 0 is no effect and 10 is complete control
[15] = Rate 125 g/ha, Postemergence, scale 0 to 10, 0 no effect, 10 complete control
[16] = Rate 125 g/ha, Postemergence section (flood test species), scale 0 to 10, 0 no effect, 10 complete control
[17] = flood test, listed under Postemergence, Rate 250 g/ha, scale 0 to 10, 0 no effect, 10 complete control
[18] = Preemergence, Rate 250 g/ha, scale 0 to 10 (0 no effect, 10 complete control)
[19] = Preemergence, Rate 500 g/ha, scale 0 (no effect) to 10 (complete control)
[20] = Rate 500 g/ha, Postemergence, scale 0 to 10, 0 no effect, 10 complete control

CCC(C)n1c(=O)on(C(=O)N(c2ccccc2)C(C)C)c1=O (centres unmarked) [Compound 610]
5: Plant response rating, Wheat (wheat; [4]) | Plant response rating, Soybean (soybean; [1]) | Wild oats plant response rating (wild oat; [3]) | Wild oats plant response rating (wild oat; [5])
10: Plant response rating, Wild oats (wild oat; [7]) | Crabgrass plant response rating (crabgrass; [6]) | Plant response rating, Crabgrass (crabgrass; [7])
9: Plant response rating, Soybean (soybean; [4]) | Plant response rating, Wild oats (wild oat; [4]) | Plant response rating, Crabgrass (crabgrass; [1]) | Plant response rating, Crabgrass (crabgrass; [2]) | Crabgrass plant response rating (crabgrass; [3]) | Plant response rating, Crabgrass (crabgrass; [4]) | Crabgrass plant response rating (crabgrass; [5])
0: Plant response rating, Wheat (wheat; [1]) | Plant response rating, S. Flatsedge (0 to 10 scale, 0 is no effect, 10 is complete control) (smallflower flatsedge; Rate 62 g/ha) | S. Flatsedge plant response rating (0 to 10 scale, 0 is no effect, 10 is complete control) (smallflower flatsedge; Rate 125 g/ha) | S. Flatsedge plant response rating (smallflower flatsedge; [8]) | Soybean plant response rating (soybean; [5]) | Plant response rating, Wild oats (wild oat; [1])
3: Plant response rating, Wild oats (wild oat; [2])
7: Plant response rating, Soybean (soybean; [2])
2: Wheat plant response rating (wheat; [5]) | Wheat plant response rating (wheat; [6])
6: Plant response rating, Wheat (wheat; [7]) | Soybean plant response rating (soybean; [6]) | Wild oats plant response rating (wild oat; [6])
1: Plant response rating, Wheat (wheat; [2])
4: Wheat plant response rating (wheat; [3])
8: S. Flatsedge plant response rating (smallflower flatsedge; [9]) | Soybean plant response rating (soybean; [3]) | Plant response rating, Soybean (soybean; [7])

CCN(C(=O)n1oc(=O)n(-c2c(C)cccc2C)c1=O)C1CCCCC1 [Compound 27]
2: Soybean plant response rating (soybean; [10])
1: Soybean plant response rating (soybean; [1]) | Soybean plant response rating (soybean; [15])
0: Wheat plant response rating (wheat; [1]) | Wheat plant response rating (wheat; [10]) | Wheat plant response rating (wheat; [11]) | Plant response rating, Wheat (wheat; [12]) | Plant response rating, Wheat (wheat; [13]) | Plant response rating, Wheat (wheat; [14]) | Wheat plant response rating (wheat; [15]) | S. Flatsedge plant response rating (smallflower flatsedge; [1]) | S. Flatsedge plant response rating (smallflower flatsedge; [16]) | S. Flatsedge plant response rating (smallflower flatsedge; [17]) | Soybean plant response rating (soybean; [11]) | Plant response rating, Soybean (soybean; [12]) | Plant response rating, Soybean (soybean; [13]) | Plant response rating, Soybean (soybean; [14]) | Wild oats plant response rating (wild oat; [1]) | Wild oats plant response rating (wild oat; [10]) | Wild oats plant response rating (wild oat; [11]) | Plant response rating, Wild oats (wild oat; [13]) | Plant response rating, Wild oats (wild oat; [14]) | Wild oats plant response rating (wild oat; [15]) | Crabgrass plant response rating (crabgrass; [1]) | Crabgrass plant response rating (crabgrass; [10]) | Crabgrass plant response rating (crabgrass; [11]) | Plant response rating, Crabgrass (crabgrass; [12]) | Plant response rating, Crabgrass (crabgrass; [13]) | Plant response rating, Crabgrass (crabgrass; [14]) | Crabgrass plant response rating (crabgrass; Rate 31 g/ha, Postemergence, scale 0 to 10) | Crabgrass plant response rating (crabgrass; [15])

CC(C)N(C(=O)n1oc(=O)n(CSC#N)c1=O)c1ccc(F)cc1 [Compound 618]
6: Soybean plant response rating (soybean; [3])
2: Plant response rating, Crabgrass (crabgrass; [7])
0: Plant response rating, Wheat (wheat; [1]) | Plant response rating, Wheat (wheat; [2]) | Wheat plant response rating (wheat; [3]) | Wheat plant response rating (wheat; [5]) | Wheat plant response rating (wheat; [6]) | Plant response rating, Wheat (wheat; [18]) | Plant response rating, Wheat (wheat; [7]) | Plant response rating, S. Flatsedge (0 to 10 scale, 0 is no effect, 10 is complete control) (smallflower flatsedge; Rate 62 g/ha) | S. Flatsedge plant response rating (0 to 10 scale, 0 is no effect, 10 is complete control) (smallflower flatsedge; Rate 125 g/ha) | S. Flatsedge plant response rating (smallflower flatsedge; [8]) | S. Flatsedge plant response rating (smallflower flatsedge; [9]) | Plant response rating, Soybean (soybean; [1]) | Plant response rating, Soybean (soybean; [2]) | Soybean plant response rating (soybean; [5]) | Soybean plant response rating (soybean; [6]) | Plant response rating, Soybean (soybean; [18]) | Plant response rating, Soybean (soybean; [7]) | Plant response rating, Wild oats (wild oat; [1]) | Plant response rating, Wild oats (wild oat; [2]) | Wild oats plant response rating (wild oat; [3]) | Wild oats plant response rating (wild oat; [5]) | Wild oats plant response rating (wild oat; [6]) | Plant response rating, Wild oats (wild oat; [18]) | Plant response rating, Wild oats (wild oat; [7]) | Plant response rating, Crabgrass (crabgrass; [1]) | Plant response rating, Crabgrass (crabgrass; [2]) | Crabgrass plant response rating (crabgrass; [3]) | Plant response rating, Crabgrass (crabgrass; [4]) | Crabgrass plant response rating (crabgrass; [5]) | Crabgrass plant response rating (crabgrass; [6]) | Plant response rating, Crabgrass (crabgrass; [18])

CCc1cccc(C)c1-n1c(=O)on(C(=O)N(c2ccc(F)cc2)C(C)C)c1=O [Compound 52]
10: Crabgrass plant response rating (crabgrass; [19])
1: Wild oats plant response rating (wild oat; [10]) | Wild oats plant response rating (wild oat; [19]) | Wild oats plant response rating (wild oat; [20]) | Crabgrass plant response rating (crabgrass; [1]) | Plant response rating, Crabgrass (crabgrass; [13]) | Crabgrass plant response rating (crabgrass; [15])
6: Plant response rating, Crabgrass (crabgrass; [14]) | Crabgrass plant response rating (crabgrass; [20])
5: Crabgrass plant response rating (crabgrass; [10])
0: Wheat plant response rating (wheat; [1]) | Wheat plant response rating (wheat; [10]) | Plant response rating, Wheat (wheat; [12]) | Plant response rating, Wheat (wheat; [13]) | Plant response rating, Wheat (wheat; [14]) | Wheat plant response rating (wheat; [19]) | Wheat plant response rating (wheat; [15]) | Wheat plant response rating (wheat; [20]) | S. Flatsedge plant response rating (smallflower flatsedge; [1]) | S. Flatsedge plant response rating (smallflower flatsedge; [16]) | S. Flatsedge plant response rating (smallflower flatsedge; Rate 500 g/ha, listed under Postemergence (flood test species), scale 0 to 10, 0 no effect, 10 complete control) | S. Flatsedge plant response rating (smallflower flatsedge; [17]) | Plant response rating, Soybean (soybean; [12]) | Plant response rating, Soybean (soybean; [13]) | Plant response rating, Soybean (soybean; [14]) | Soybean plant response rating (soybean; [19]) | Wild oats plant response rating (wild oat; [1]) | Plant response rating, Wild oats (wild oat; [13]) | Plant response rating, Wild oats (wild oat; [14]) | Wild oats plant response rating (wild oat; [15]) | Plant response rating, Crabgrass (crabgrass; [12])
2: Soybean plant response rating (soybean; [1]) | Soybean plant response rating (soybean; [10]) | Soybean plant response rating (soybean; [15]) | Soybean plant response rating (soybean; [20])
